Test results: patent publication US4309305A, “In vitro removal of actinide (IV) ions” (priority 1979, dated 1982)

Experiments:
[1] = Distribution of ^238 Pu-citrate in Mouse Tissues (actinide-ion sequestering activity, animal studies); format: in vivo; design: Liver, distribution of ^238 Pu-citrate (mean) / Skel, distribution of ^238 Pu-citrate (mean) / G.I., distribution of ^238 Pu-citrate (mean) / Kidney, distribution of ^238 Pu-citrate (mean) / Total, distribution of ^238 Pu-citrate: unit not given here
Method: Specifically, animal studies were carried out with compounds 2, 3, 4, and 10.
Distribution of ^238 Pu-Citrate in Mouse Tissues
Age of animals 74 weeks 74 weeks
^(b) Animals injected I.P. (Intraperitoneum)
(§1) Distribution of ^238 Pu-citrate in Mouse Tissues
Age of Animals 68 weeks 68 weeks
^(a) Animals injected I.M. (Intramuscular)
as §1
^(b) Animals injected I.P.
Age of animals 18 weeks 18 weeks
^(a) Animals injected I.M.

[2] = pH-titration of the constituent catechol groups; format: physicochemical; conditions: 4 protons, 4 constituent catechol groups
Method: Compound 2. Using method B, precusor 3 (1.0 g, 1.0 mmol) dissolved in CH2 Cl2 (25 ml) was added dropwise (15 min) via an addition funnel to an ice bath cooled, vigorously stirred solution of BBR3 (2 ml, 21 mmol) in CH2 Cl2 solution (25 ml). The ice bath was allowed to warm up to room temperature as the reaction slurry was stirred overnight. Cautious addition of H2 O (20 ml) was followed by an additional 2 hrs stirring to hydrolyze all boron compounds. Crude product was collected by filtration and washed well with H2 O. The pink-tan solid was dissolved in MeOH and precipitated by the addition of Et2 O. Drying at 115° (5-10 microns) overnight gave the demethylated product, compound 2 (0.88 mmol, 88%) as hygroscopic powder which analyzed with two waters of crystallization: m.p.
Compound 3 (1.0 g, 1.2 mmol) was dissolved in 98% H2 SO4 (5 ml), then SOCl2 (5 ml, 55 mmol) was added dropwise over a period of 1 hr with vigorous stirring. The reactants were protected from the atmosphere with a Drierite tube. After stirring overnight, the reaction mixture was poured onto ice. Workup as in method C gave white solid, 1.49 g (1.0 mmol, 85%) which analyzed as compound 4.3 NaCl.H2 O: IR (KBr) identical to that recorded in method A; purity also established by pH-titration giving pKa1 8.12 (4 protons) and pKa2 12.0 (4 protons) for the four constituent catechol groups.
Using precisely the same Method D, compound 7 was converted to compound 8. Thus was obtained hygroscopic white solid, 1.4 g (90%); IR (KBr) 2800-3700 s, 1600 s (>N--CO--), 1475, 1425 m, 1150-1300 s (--SO3 ^-1), 1100, 1045 s (--SO3^-), 620 (--SO3^-); purity also established by pH-titration giving pKa1 7.49 (4 protons) and pKa2 12.1 (4 protons) for the four constituent catechol groups.

[3] = tested on: animals; experiment: Toxicity studies / toxicity to animals; conditions: in vivo
[4] = qualitative observation of dissolution of Pu(IV) in the presence of the compound
[5] = I.P., killed 1 day after Pu injection, 13.5 weeks old
[6] = I.P., killed 2 days after Pu injection, 74 weeks old
[7] = I.M., killed 2 days after Pu injection, 68 weeks old
[8] = I.M., killed 1 day after Pu injection, 18 weeks old

Which results are given for “1,5,9,13-N,N',N'',N'''-Tetra(2,3-dihydroxybenzoyl)tetraazacyclohexadecane sodium sulfonate [Compound 4]”?
Feces, distribution of ^238 Pu-citrate (mean) [1, 5]: 3.1; G.I., distribution of ^238 Pu-citrate (mean) [1, 5]: 8.2; Kidney, distribution of ^238 Pu-citrate (mean) [1, 5]: 3.9; Liver, distribution of ^238 Pu-citrate (mean) [1, 5]: 24.8; Skel, distribution of ^238 Pu-citrate (mean) [1, 5]: 15.7; Skin, distribution of ^238 Pu-citrate (mean) [1, 5]: 4.1; Soft Tis, distribution of ^238 Pu-citrate (mean) [1, 5]: 6.4; Total, distribution of ^238 Pu-citrate [1, 5]: 100; Urine, distribution of ^238 Pu-citrate (mean) [1, 5]: 33.8; pKa1 [2]: 8.12; pKa2 [2]: 12.0

Which results are given for “1,6,11,16-N,N',N'',N'''-Tetra(2,3-dihydroxybenzoyl)tetraazahexadecane potassium sulfonate [Compound 8]”?
pKa1 [2]: 7.49; pKa2 [2]: 12.1

Which “Feces, distribution of ^238 Pu-citrate (mean)” value [1, 6] does the source give for `O=C(c1ccc([N+](=O)[O-])c(O)c1O)N1CCCN(C(=O)c2ccc([N+](=O)[O-])c(O)c2O)CCN(C(=O)c2ccc([N+](=O)[O-])c(O)c2O)CCCN(C(=O)c2ccc([N+](=O)[O-])c(O)c2O)CC1` [Compound 2, 1,4,8,11-N,N',N'',N'''-Tetra(2,3-dihydroxy-4-nitrobenzoyl)tetraazacyclotetradecane] here?
Its value is 5.4.

And the “G.I., distribution of ^238 Pu-citrate (mean)” value (“G.I., distribution” for short) [1, 6]?
Its value is 16.3.

And the “Kidney, distribution of ^238 Pu-citrate (mean)” value (shortened to “Kidney, distribution”) [1, 6]?
The value was 6.0.

And the “Liver, distribution of ^238 Pu-citrate (mean)” value (from here on “Liver, distribution”) [1, 6]?
Its value is 36.6.

And the “Skel, distribution of ^238 Pu-citrate (mean)” value (“Skel, distribution” below) [1, 6]?
The value was 7.9.

What about the “Skin, distribution of ^238 Pu-citrate (mean)” value [1, 6] of the same compound?
The value was 11.2.

What about the “Soft Tis, distribution of ^238 Pu-citrate (mean)” value [1, 6] of the same compound?
Its value is 14.8.

And the “Total, distribution of ^238 Pu-citrate” value [1, 6]?
The value was 100.

And the “Urine, distribution of ^238 Pu-citrate (mean)” value [1, 6]?
The value was 1.8.

What about the pKa1 [2] of the same compound?
Its pKa1 is 5.59.

What about the pKa2 [2] of the same compound?
Its pKa2 is 11.8.

And the toxicity to animals [3]?
Its toxicity to animals is “toxic to animals”.

With `O=C(c1cccc(O)c1O)N1CCCN(C(=O)c2cccc(O)c2O)CCCN(C(=O)c2cccc(O)c2O)CCCN(C(=O)c2cccc(O)c2O)CCC1` [Compound 3, 1,5,9,13-N,N',N'',N'''-Tetra(2,3-dihydroxybenzoyl)tetraazacyclohexadecane] as the compound, how does the “G.I., distribution” value [1, 7] read?
The value was 4.4.

What about the “Kidney, distribution” value [1, 7] of the same compound?
Its value is 42.1.

What about the “Liver, distribution” value [1, 7] of the same compound?
The value was 23.3.

What about the “Skel, distribution” value [1, 7] of the same compound?
The value was 20.3.

What about the “Total, distribution of ^238 Pu-citrate” value [1, 7] of the same compound?
The value was 101.6.

What about the “Urine, Feces (one value printed between both lines), distribution of ^238 Pu-citrate (mean)” value [1, 7] of the same compound?
The value was 11.5.

What about the acute toxicity [3] of the same compound?
The acute toxicity was “substantially acutely non-toxic”.

Which “dissolution of Pu(IV) in presence of compound” value ([4]; even at high pH, qualitative) does the source give for `O=C(c1cccc(O)c1O)N1CCCN(C(=O)c2cccc(O)c2O)CCN(C(=O)c2cccc(O)c2O)CCCN(C(=O)c2cccc(O)c2O)CC1` [Compound 1, 1,4,8,11-N,N',N'',N'''-Tetra(2,3-dihydroxybenzoyl)tetraazacyclotetradecane] here?
The value was “Pu(IV) dissolved in the presence of compound 1 even at high pH”.

What about the “formation constant for the Pu(IV) complex” value ([4]; inferred from dissolution of Pu(IV) and Ksp for Pu(OH)4) of the same compound?
The value was “very high formation constant”.

With “1,4,8,11-N,N',N'',N'''-Tetra(2,3-dihydroxybenzoyl)tetraazaundecane potassium sulfonate [Compound 10]” as the compound, how does the “Feces, distribution of ^238 Pu-citrate (mean)” value [1, 8] read?
The value was 2.2.

What about the “G.I., distribution” value [1, 8] of the same compound?
Its value is 10.2.

What about the “Kidney, distribution” value [1, 8] of the same compound?
The value was 4.8.

And the “Liver, distribution” value [1, 8]?
The value was 28.8.

And the “Skel, distribution” value [1, 8]?
The value was 12.1.

And the “Skin, distribution of ^238 Pu-citrate (mean)” value [1, 8]?
Its value is 5.7.

What about the “Soft Tis, distribution of ^238 Pu-citrate (mean)” value [1, 8] of the same compound?
Its value is 7.1.

What about the “Total, distribution of ^238 Pu-citrate” value [1, 8] of the same compound?
The value was 101.1.

What about the “Urine, distribution of ^238 Pu-citrate (mean)” value [1, 8] of the same compound?
Its value is 29.2.
